{"source": "paper PMC8062851", "about": "“2-Methoxyestradiol and its derivatives inhibit store-operated Ca^2+ entry in T cells: Identification of a new and potent inhibitor” (Biochimica et Biophysica Acta. Molecular Cell Research, 2021)", "key": {"KV channels": {"target": "T1, KV channels (Homo sapiens, UniProt P22001)", "T1 construct": "About 10^5 Jurkat T-lymphocytes were placed into this recording chamber; endogenous in cells; host or cells: Jurkat T-lymphocytes (whole-cell patch clamp)", "T1 sequence (P22001 whole entry)": "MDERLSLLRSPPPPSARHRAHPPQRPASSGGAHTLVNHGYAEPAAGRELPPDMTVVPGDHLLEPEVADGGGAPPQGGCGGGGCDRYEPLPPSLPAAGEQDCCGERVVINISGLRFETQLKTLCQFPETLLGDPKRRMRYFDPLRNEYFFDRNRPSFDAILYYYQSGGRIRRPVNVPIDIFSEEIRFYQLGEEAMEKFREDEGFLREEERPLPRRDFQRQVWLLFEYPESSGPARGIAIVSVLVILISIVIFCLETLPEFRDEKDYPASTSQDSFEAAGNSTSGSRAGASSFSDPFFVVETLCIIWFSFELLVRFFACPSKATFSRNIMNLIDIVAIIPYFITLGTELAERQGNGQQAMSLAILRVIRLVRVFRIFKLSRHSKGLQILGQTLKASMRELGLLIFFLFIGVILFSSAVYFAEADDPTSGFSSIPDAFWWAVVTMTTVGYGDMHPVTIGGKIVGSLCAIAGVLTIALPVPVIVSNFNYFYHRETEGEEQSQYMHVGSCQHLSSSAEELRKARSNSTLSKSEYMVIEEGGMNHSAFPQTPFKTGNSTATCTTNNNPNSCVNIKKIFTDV", "assay": "Whole-cell patch clamp of KV channels in Jurkat T cells", "format": "cell-based", "settings": "STX564 at 10 μM"}, "TMBP cells": {"tested_on": "TMBP cells", "assay": "In vitro activation of TMBP cells by MBP, cytokine mRNA by qPCR", "format": "cell-based, rat", "experimental": "Myelin basic protein (MBP)-reactive CD4^+ T cells retrovirally transduced to express enhanced GFP (TMBP cells) were established as previously reported. In brief, 6–8 week old female Lewis rats were immunized subcutaneously with 150 μl of emulsion consisting of equal parts of MBP (stock concentration: 1 mg/ml) and complete Freund's adjuvant containing heat-inactivated Mycobacterium tuberculosis extract (Difco; stock concentration: 2 mg/ml). Draining lymph nodes were harvested and passed through a cell strainer (40 μm) 9–10 days after immunization. The cell suspension was co-cultured with GP + E86 packaging cell lines producing replication-deficient retroviruses in the presence of 10 μg/ml MBP. Murine IL-2 was added to the culture for T cell expansion from day 2–4 after stimulation. The cell lines underwent 3–4 cycles of stimulation before being used for in vitro and in vivo experiments. […] Upon stimulation, they produced interferon-γ and IL-17.\nIn vitro activation assays were performed in 96-well plates. […]. TMBP cell activation on mRNA level was determined using qPCR and on surface protein level using surface marker staining and subsequent flow cytometry analysis.\nTotal RNA was isolated using the standard TRIzol method. cDNA was synthesized using the RevertAid First Strand cDNA Synthesis Kit (Thermo Fisher Scientific). Quantitative PCR (qPCR) was performed using the StepOnePlus™ Real-Time PCR System (Applied Biosystems), as previously described [[23], [24], [25]]. Rat TMBP cell data were obtained from three to four independent duplicate measurements. β-actin served as housekeeping gene. Human PBMC data were obtained from two independent healthy donors and duplicate measurements (representative data of one donor are shown). HPRT served as housekeeping gene. For all probes (TaqMan), a combination of 5′-FAM and 3′-TAMRA quencher was used as described."}, "[1]": {"tested_on": "SOCE in primary human CD4+ T cells", "assay": "SOCE inhibition, Ca2+ free/Ca2+ re-addition protocol in primary human CD4+ T cells", "format": "cell-based", "experimental": "Buffy coats were obtained from the blood bank of the University Medical Center Hamburg-Eppendorf (UKE) and peripheral blood mononuclear cells (PBMCs) were isolated by Biocoll density gradient centrifugation (Merck). Human CD4^+ T cells were isolated from PBMCs by negative selection using the EasySep Human CD4^+ T Cell Enrichment Kit (Stemcell Technologies) according to the manufacturer's protocol. The purity of the isolated cells was assessed by flow cytometry.\nJurkat T-lymphocytes, primary human CD4^+ T cells and H1299 cells were pelleted at 450 ×g for 5 min, rat TMBP at 300 ×g for 8 min at room temperature and were resuspended in 1 ml of either standard JMP medium (Jurkat, H1299 and human CD4^+ T cells) or standard DMEM based medium containing 10% fetal bovine serum (FBS) (v/v) (TMBP cells). Resting TMBP cells (day 5–7 after re-stimulation) after the second to fifth re-stimulation were thawed from liquid nitrogen 12 to 40 h prior to Fura2-loading. After pre-incubation for 5 min at 37 °C, cells were incubated with 4 μM Fura2-AM for 15 min at 37 °C. After addition of the dye, cells were kept in the dark. Afterwards, cells and the dye were diluted by addition of 4 ml standard medium and incubated for another 15 min. Cells were washed twice in Ca^2+ buffer (140 mM NaCl, 5 mM KCl, 1 mM MgSO4, 1 mM CaCl2, 1 mM NaH2PO4, 20 mM HEPES, 5.5 mM glucose; pH 7.4 (NaOH), sterile filtered) and were diluted to a concentration of 2*10^6 cells/ml. Subsequently, cells were kept at room temperature for 20 min for de-esterification before the start of the first measurement.\n10^6 Jurkat T-lymphocytes, H1299 cells, TMBP cells or 4*10^6 primary human CD4^+ T cells were added into a 10 × 10 mm quartz glass cuvette (Hellma Analytics, Germany) that was placed into a fluorescence spectrophotometer (F-2710, Hitachi, Japan). […] Fluorescence intensity was measured at an emission wavelength of 495 ± 5 nm for both excitation wavelengths."}}, "note": "“Also recorded” adds a separate entry of the source.", "data": [{"smiles": "CCc1cc2c(cc1OS(N)(=O)=O)CC[C@@H]1[C@@H]2CC[C@]2(C)[C@@H](CC#N)CC[C@@H]12", "note": "[STX564, 2-ethyl-3-sulfamoyloxy-17β-cyanomethylestra-1,3,5(10)-triene]", "values": [{"measurement": "effect on KV channel currents", "setting": "KV channels", "result": "does not inhibit KV channels; also recorded: no inhibition; also recorded: does not inhibit the KV1.3 channel"}, {"measurement": "concentration at which TCR/CD3-evoked pro-inflammatory cytokine expression was significantly reduced", "setting": "TMBP cells; TMBP cells + MBP, 6 h, qPCR", "result": "≥ 0.1", "unit": "µM"}, {"measurement": "concentration at which interferon-γ expression was significantly antagonized", "setting": "TMBP cells; TMBP cells + MBP, 6 h, qPCR, STX564 vs Synta66", "result": "≥ 0.1", "unit": "µM"}, {"measurement": "fold higher antagonist potency over Synta66, pro-inflammatory cytokine expression", "setting": "TMBP cells; rat effector TMBP cells, especially INF-γ expression", "result": "approx. 100 fold"}, {"measurement": "Ca2+ release upon drug addition in absence of extracellular Ca2+", "setting": "[1]; 10 μM", "result": "Ca^2+ release was observed directly upon drug addition"}, {"measurement": "steady-state plateau phase of Ca2+ entry", "setting": "[1]; 10 μM", "result": "re-reached after a few min"}, {"measurement": "initial Ca2+ peak after Ca2+ re-addition and Ca2+ entry at later stages", "setting": "[1]; 1 and 2 μM", "result": "efficiently inhibited"}]}]}
